Experimental data reported in PubChem BioAssay (NCI).
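Cells were grown in 96-well plates and exposed to each compound for 48 hours at five concentrations; endpoints were interpolated linearly between bracketing concentrations, or set to the highest concentration if not reached. TGI: total growth inhibition.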

Legend:
Test in all cases: NCI tumour cell line growth inhibition, 48 h
SW-620 colon = test system: SW-620 colon
SK-MEL-2 melanoma = test system: SK-MEL-2 melanoma
LOX IMVI melanoma = test system: LOX IMVI melanoma
DMS 273 small cell lung = test system: DMS 273 small cell lung
SK-MEL-5 melanoma = test system: SK-MEL-5 melanoma
RXF 393 renal = test system: RXF 393 renal
OVCAR-4 ovarian = test system: OVCAR-4 ovarian
KM12 colon = test system: KM12 colon
786-0 renal = test system: 786-0 renal
UO-31 renal = test system: UO-31 renal
A498 renal = test system: A498 renal
NCI-H460 lung = test system: NCI-H460 lung
NCI-H226 lung = test system: NCI-H226 lung
HT29 colon = test system: HT29 colon
ACHN renal = test system: ACHN renal
OVCAR-3 ovarian = test system: OVCAR-3 ovarian
HCC-2998 colon = test system: HCC-2998 colon
DU-145 prostate = test system: DU-145 prostate
MDA-MB-435 = test system: MDA-MB-435
MDA-N = test system: MDA-N

Row | Compound | TGI (SW-620 colon) [µM] | TGI (SK-MEL-2 melanoma) [µM] | TGI (LOX IMVI melanoma) [µM] | TGI (DMS 273 small cell lung) [µM] | TGI (SK-MEL-5 melanoma) [µM] | TGI (RXF 393 renal) [µM] | TGI (OVCAR-4 ovarian) [µM] | TGI (KM12 colon) [µM] | TGI (786-0 renal) [µM] | TGI (UO-31 renal) [µM] | TGI (A498 renal) [µM] | TGI (NCI-H460 lung) [µM] | TGI (NCI-H226 lung) [µM] | TGI (HT29 colon) [µM] | TGI (ACHN renal) [µM] | TGI (OVCAR-3 ovarian) [µM] | TGI (HCC-2998 colon) [µM] | TGI (DU-145 prostate) [µM] | TGI (MDA-MB-435) [µM] | TGI (MDA-N) [µM]
1 | COc1cccc(NC(=S)Nn2c(C)nc3ccccc3c2=O)c1 | > 100 | > 100 | > 100 | > 100 | > 100 | > 100 | > 100 | > 100 | > 100 | > 100 | > 100 | > 100 | > 100 | > 100 | > 100 | – | – | – | – | –
2 | CC(C)(C)NN=C1C(C)(C)C(=NNC(C)(C)C)C1(C)C | > 100 | – | > 100 | > 100 | > 100 | > 100 | > 100 | > 100 | > 100 | > 100 | – | > 100 | > 100 | > 100 | > 100 | > 100 | > 100 | – | – | –
3 | CCCCc1c2c(nc3c1CCCC3O)/C(=C/c1ccccc1)CCC2 (configuration not stated) | 64.2 | 51.7 | 34.5 | > 100 | 39.6 | 71.7 | > 100 | 36.8 | 57 | > 100 | > 100 | > 100 | 68 | 46.1 | > 100 | 35.9 | 24.3 | – | – | –
4 | Clc1ccc(SCCSCCCCCCCCCCSCCSc2ccc(Cl)cc2)cc1 | > 100 | > 100 | > 100 | > 100 | > 100 | > 100 | – | > 100 | > 100 | > 100 | > 100 | > 100 | > 100 | > 100 | > 100 | > 100 | > 100 | – | – | –
5 | CCCC/C=C/C1Cc2ccccc2CN1S(=O)(=O)c1ccc(C)cc1 (configuration not stated) | 24.1 | > 100 | 22.3 | 29.6 | 14.9 | 23.9 | 24.7 | 22.1 | 25.1 | 18.7 | – | 31.3 | 25.8 | 21.7 | 22.5 | 24.1 | 25.3 | – | – | –
6 | CC(=O)O/N=C/c1ncccc1OC(C)=O | > 100 | > 100 | > 100 | > 100 | > 100 | > 100 | > 100 | > 100 | > 100 | > 100 | > 100 | > 100 | > 100 | > 100 | > 100 | > 100 | – | – | – | –
7 | CCCn1c(SCC)c2ccccc2c1-c1nc(F)nc(F)n1 | > 100 | > 100 | > 100 | > 100 | – | > 100 | > 100 | > 100 | > 100 | > 100 | > 100 | > 100 | > 100 | > 100 | > 100 | > 100 | > 100 | – | – | –
8 | COC(=O)C1=C(C(=O)OC)C2(OC(C)=O)c3ccccc3-c3ccccc3C12 (configuration not stated) | 3.12 | 29.2 | 9.51 | 9.61 | 27.3 | 9.17 | 6.48 | 26.8 | 8.26 | 8.97 | 32 | 32.8 | 31.2 | 10.6 | 6.48 | 9.94 | 31 | – | – | –
9 | CSC(C1c2ccccc2N(C)C2=NC(=O)N(C)C(=O)C21Cl)S(=O)(=O)c1ccc(C)cc1 (configuration not stated) | 71.1 | > 100 | > 100 | 75 | > 100 | – | > 100 | > 100 | 33.2 | > 100 | > 100 | > 100 | > 100 | > 100 | > 100 | 43.3 | > 100 | – | – | –
10 | CC(C)(C)c1nc2c(o1)C(=O)c1ccccc1C2=O | 4.4 | 1.83 | 1.94 | 12 | 2.9 | 5.54 | 2.44 | 6.76 | 5.51 | 6.23 | 11.5 | 8.19 | 6.36 | 10.7 | 5.69 | 2.03 | 7.39 | 2.57 | 0.327 | 0.367
11 | Nc1nc(SCCNC(=O)CCc2ccc(O)cc2)nc2c1ncn2C1OC(CO)C(O)C1O (configuration not stated) | > 203 | > 203 | > 203 | > 203 | > 203 | – | > 203 | > 203 | > 203 | > 203 | > 203 | > 203 | > 203 | > 203 | > 203 | > 203 | > 203 | – | – | –
12 | CCCN(CCCC(NC(C)=O)C(=O)NCc1ccccc1)C(=O)NC (configuration not stated) | > 100 | > 100 | > 100 | > 100 | > 100 | > 100 | > 100 | > 100 | > 100 | > 100 | > 100 | > 100 | > 100 | > 100 | > 100 | > 100 | > 100 | – | – | –
13 | COC1=CC(=O)[C@H]2[C@H](C)C(c3ccccc3)[C@@]2(C)C1=O (some centres not stated) | > 100 | > 100 | > 100 | > 100 | > 100 | > 100 | > 100 | > 100 | > 100 | > 100 | > 100 | > 100 | – | > 100 | > 100 | > 100 | > 100 | – | – | –
14 | N#Cc1c(-c2ccco2)cc(-c2ccc(NCc3nc4ccccc4[nH]3)cc2)nc1N | > 100 | 40.3 | 32.7 | 38.5 | 29.9 | 68.5 | 66.3 | 38 | 87.9 | 58.7 | > 100 | 43.3 | – | 91.7 | > 100 | 41.8 | 54.7 | – | – | –
15 | NC(=O)N1N=C2c3ccccc3CC[C@@H]2C1c1ccccc1 (some centres not stated) | > 100 | > 100 | > 100 | > 100 | > 100 | > 100 | – | > 100 | > 100 | > 100 | > 100 | > 100 | > 100 | > 100 | > 100 | > 100 | > 100 | – | – | –
16 | COC(=O)C(CCCC1(c2ccccc2)OCCO1)C(C)=O (configuration not stated) | > 100 | > 100 | > 100 | > 100 | > 100 | > 100 | > 100 | > 100 | > 100 | > 100 | > 100 | > 100 | > 100 | > 100 | > 100 | > 100 | > 100 | – | – | –
17 | CCc1n[nH]c(=O)n1/N=C/c1ccccc1Cl | > 100 | > 100 | > 100 | – | > 100 | > 100 | > 100 | > 100 | > 100 | > 100 | > 100 | > 100 | > 100 | > 100 | > 100 | > 100 | > 100 | > 100 | > 100 | > 100
18 | COCC1OC(OC2C3=C(C(C)C)CCC3(C)/C=C3\C(CCC3(O)COC)C(C)C2O)C(O)C2OC3OC12OC3(C)C1CO1 (configuration not stated) | > 100 | > 100 | 99.3 | – | 67.3 | > 100 | > 100 | > 100 | > 100 | 72.1 | > 100 | > 100 | 43.1 | > 100 | > 100 | > 100 | > 100 | > 100 | > 100 | > 100
19 | COc1cc2c(c(C)c1O)[C@H]1COc3ccccc3[C@H]1O2 | – | > 100 | 14.7 | 20.5 | 22.9 | 54 | 89.3 | > 100 | 42.6 | 35.5 | > 100 | 31.8 | 34.5 | > 100 | > 100 | > 100 | – | – | – | –
20 | CC(C)(C)N(Cc1ccc2c(c1)OCO2)C(=O)/C=C\S(=O)c1ccccc1 (configuration not stated) | 17.5 | 9.11 | 7.51 | – | 12.9 | 8.22 | 10.7 | 14 | 6.07 | 7.93 | 21.4 | 16.9 | 11.2 | 12.9 | 15.2 | 7.4 | 13.8 | 10.2 | 9.74 | 12.7
21 | COC(OC)c1cccc2c1C(=O)CCC1(O)c3ccccc3C1C2 (configuration not stated) | > 100 | > 100 | > 100 | > 100 | > 100 | – | > 100 | > 100 | > 100 | > 100 | – | – | > 100 | > 100 | – | > 100 | > 100 | – | – | –
22 | COc1ccc2nc3cccc([N+](=O)[O-])c3c(NCCO)c2c1 | 0.00862 | 0.0368 | 0.00494 | – | 0.0614 | 0.0274 | 0.153 | 0.149 | 0.0649 | 0.0504 | 0.117 | 0.0233 | 0.176 | 0.125 | 0.0504 | 0.0419 | 0.0395 | 0.0619 | 0.0186 | 0.0234
23 | CSc1nc(-c2cc3c(c(SC)n2)CCCCC3)cc2c1CCCCC2 | > 100 | > 100 | > 100 | – | > 100 | > 100 | > 100 | > 100 | > 100 | > 100 | > 100 | > 100 | > 100 | > 100 | > 100 | > 100 | > 100 | > 100 | > 100 | > 100
24 | Cc1cc(N(CCC#N)S(C)(=O)=O)ccc1C=O | > 100 | > 100 | > 100 | > 100 | > 100 | > 100 | > 100 | > 100 | > 100 | > 100 | > 100 | > 100 | > 100 | > 100 | > 100 | > 100 | > 100 | – | – | –
